Laboratory results from ChEMBL document CHEMBL1201862, “PubChem BioAssay data set” (2004).
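Values below derive from 48-hour exposures of cells grown in 96-well plates, with endpoints linearly interpolated between the two concentrations bracketing the appropriate inhibition level. Here, GI50 denotes the concentration required for 50% inhibition of growth.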 The source made the active and inactive calls. No stated cut-off is given here; in the data, active = GI50 up to about 1.1 µM and inactive = higher.

Legend:
Experiment in all cases: DTP human tumour cell line panel, 48 h
MDA-MB-435 = test system: MDA-MB-435
SF-268 = test system: SF-268
Malme-3M = test system: Malme-3M
MCF7 = test system: MCF7
PC-3 = test system: PC-3
RXF 393 = test system: RXF 393
EKVX = test system: EKVX
MDA-N = test system: MDA-N
OVCAR-8 = test system: OVCAR-8
OVCAR-3 = test system: OVCAR-3
SK-MEL-5 = test system: SK-MEL-5
SNB-19 = test system: SNB-19
DU-145 = test system: DU-145
UACC-62 = test system: UACC-62
KM12 = test system: KM12
HCT-15 = test system: HCT-15
SK-MEL-2 = test system: SK-MEL-2
LOX IMVI = test system: LOX IMVI
OVCAR-4 = test system: OVCAR-4

| SMILES | GI50 (MDA-MB-435) | GI50 (SF-268) | GI50 (Malme-3M) | GI50 (MCF7) | GI50 (PC-3) | GI50 (RXF 393) | GI50 (EKVX) | GI50 (MDA-N) | GI50 (OVCAR-8) | GI50 (OVCAR-3) | GI50 (SK-MEL-5) | GI50 (SNB-19) | GI50 (DU-145) | GI50 (UACC-62) | GI50 (KM12) | GI50 (HCT-15) [µM] | GI50 (SK-MEL-2) | GI50 (LOX IMVI) | GI50 (OVCAR-4) |
| --- | --- | --- | --- | --- | --- | --- | --- | --- | --- | --- | --- | --- | --- | --- | --- | --- | --- | --- | --- |
| CCN(CC)c1nc(NC2CCCCC2)c2nc(N(CC)CC)nc(NC3CCCCC3)c2n1 | > 100 µM (inactive) | > 100 µM (inactive) | > 100 µM (inactive) | > 100 µM (inactive) | > 100 µM (inactive) | 33.3 µM (inactive) | > 100 µM (inactive) | > 100 µM (inactive) | > 100 µM (inactive) | > 100 µM (inactive) | > 100 µM (inactive) | > 100 µM (inactive) | > 100 µM (inactive) | > 100 µM (inactive) | > 100 µM (inactive) | > 100 |  |  |  |
| CCOC(=O)C1(Cc2ccccc2)Cc2ccccc2C1=O (stereo not given) | 20 µM (inactive) | 29.2 µM (inactive) | 18.7 µM (inactive) | 33.8 µM (inactive) | 17.6 µM (inactive) |  | 20.7 µM (inactive) | 16.4 µM (inactive) | 28.8 µM (inactive) | 30.8 µM (inactive) | 15.1 µM (inactive) |  | 45.2 µM (inactive) | 20.8 µM (inactive) | 26.6 µM (inactive) | 30.9 | 14.8 µM (inactive) | 24.1 µM (inactive) | 18.7 µM (inactive) |
| COC(=O)C1Cc2c([nH]c3ccccc23)C(c2cccc(O)c2)N1 (stereo not given) | 18.2 µM (inactive) | 40.8 µM (inactive) |  | 27.3 µM (inactive) | 27.3 µM (inactive) | 25.8 µM (inactive) | 40.3 µM (inactive) | 19.5 µM (inactive) | 32.1 µM (inactive) | 42 µM (inactive) | 40.9 µM (inactive) | 42.5 µM (inactive) | 23.4 µM (inactive) | 44.2 µM (inactive) | 32.1 µM (inactive) | 34 | 27 µM (inactive) | 50.7 µM (inactive) | 41.2 µM (inactive) |
| COc1ccc(Nc2nc3c([nH]2)c(=O)n(C)c(=O)n3C)cc1 | > 10 µM (inactive) | > 10 µM (inactive) | > 10 µM (inactive) | > 10 µM (inactive) | > 10 µM (inactive) | > 10 µM (inactive) | > 10 µM (inactive) | > 10 µM (inactive) | > 10 µM (inactive) |  | > 10 µM (inactive) |  | > 10 µM (inactive) | > 10 µM (inactive) | > 10 µM (inactive) | > 10 |  | > 10 µM (inactive) | > 10 µM (inactive) |
| Clc1ccc(/N=C2\c3ccccc3CN2c2ccc(Cl)cc2)cc1 | > 100 µM (inactive) | 47.1 µM (inactive) |  | 5.2 µM (inactive) | 74.3 µM (inactive) | 29.8 µM (inactive) | > 100 µM (inactive) | 30.1 µM (inactive) | > 100 µM (inactive) | 52.7 µM (inactive) | 1.43 µM (inactive) | > 100 µM (inactive) | 11.6 µM (inactive) | > 100 µM (inactive) | 77.8 µM (inactive) | > 100 | 4.68 µM (inactive) | > 100 µM (inactive) | 61.9 µM (inactive) |
| COc1ccc(SCc2cc(OCc3ccccc3)c(OCc3ccccc3)c(OCc3ccccc3)c2)cc1 | 1.76 µM (inactive) | 1.77 µM (inactive) | 1.83 µM (inactive) | 1.71 µM (inactive) | 1.92 µM (inactive) | 1.92 µM (inactive) | 2 µM (inactive) | 1.83 µM (inactive) | 1.78 µM (inactive) | 1.65 µM (inactive) | 1.84 µM (inactive) | 1.72 µM (inactive) | 1.75 µM (inactive) | 2.11 µM (inactive) | 1.64 µM (inactive) | 1.84 |  | 1.54 µM (inactive) | 1.8 µM (inactive) |
| Cc1cc2c(O)c(c1)CN(Cc1ccccc1)Cc1cc(C)cc(c1O)CN(Cc1ccccc1)Cc1cc(C)cc(c1O)CN(Cc1ccccc1)C2 | > 100 µM (inactive) | > 100 µM (inactive) | > 100 µM (inactive) | > 100 µM (inactive) | > 100 µM (inactive) | 75.2 µM (inactive) |  | > 100 µM (inactive) | > 100 µM (inactive) | > 100 µM (inactive) | > 100 µM (inactive) | > 100 µM (inactive) | > 100 µM (inactive) | > 100 µM (inactive) | > 100 µM (inactive) | > 100 | 32.3 µM (inactive) | > 100 µM (inactive) | > 100 µM (inactive) |
| O=S(=O)(O)c1ccc(/N=N/c2ccc(/N=N/c3c(O)c(S(=O)(=O)O)cc4cc(S(=O)(=O)O)ccc34)cc2)cc1 | > 100 µM (inactive) | > 100 µM (inactive) | > 100 µM (inactive) | > 100 µM (inactive) | > 100 µM (inactive) | > 100 µM (inactive) | > 100 µM (inactive) | > 100 µM (inactive) | > 100 µM (inactive) | > 100 µM (inactive) | > 100 µM (inactive) | > 100 µM (inactive) | > 100 µM (inactive) | > 100 µM (inactive) | > 100 µM (inactive) | > 100 | > 100 µM (inactive) |  | > 100 µM (inactive) |
| COc1ccc2nc3n(c2c1)C(c1c(Cl)cccc1Cl)SC3 (stereo not given) | > 100 µM (inactive) |  |  | > 100 µM (inactive) | > 100 µM (inactive) | > 100 µM (inactive) | > 100 µM (inactive) | 87.9 µM (inactive) | > 100 µM (inactive) | > 100 µM (inactive) | > 100 µM (inactive) | > 100 µM (inactive) | > 100 µM (inactive) | > 100 µM (inactive) | > 100 µM (inactive) | > 100 | > 100 µM (inactive) | > 100 µM (inactive) | 24.7 µM (inactive) |
| O=C(N/N=C(COc1ccc(Cl)cc1)\N=C\c1ccncc1)c1ccncc1 | > 100 µM (inactive) | > 100 µM (inactive) | > 100 µM (inactive) | > 100 µM (inactive) | > 100 µM (inactive) | 57.1 µM (inactive) | > 100 µM (inactive) | > 100 µM (inactive) | > 100 µM (inactive) | > 100 µM (inactive) |  | > 100 µM (inactive) | > 100 µM (inactive) | > 100 µM (inactive) | > 100 µM (inactive) | > 100 | > 100 µM (inactive) | > 100 µM (inactive) | > 100 µM (inactive) |
| Cc1cn(C2C=CC(COP(=O)(OCc3ccc([N+](=O)[O-])o3)N(C)CCCCCl)O2)c(=O)[nH]c1=O (stereo not given) | 1.8 µM (inactive) | 7.57 µM (inactive) | 1.79 µM (inactive) | 4.99 µM (inactive) | 12.8 µM (inactive) | 2.38 µM (inactive) |  | 2.63 µM (inactive) | 13.9 µM (inactive) | 1.75 µM (inactive) | 1.22 µM (inactive) | 6.58 µM (inactive) | 13.3 µM (inactive) | 4.56 µM (inactive) | 6.68 µM (inactive) | 16.6 | 3.48 µM (inactive) | 3.58 µM (inactive) | 4.31 µM (inactive) |
| Cc1cc(-c2nc3c(O)cccc3s2)ccc1N | 17.7 µM (inactive) | 21 µM (inactive) |  | 13 µM (inactive) | 21.2 µM (inactive) | 67.9 µM (inactive) | 20.2 µM (inactive) | 25.4 µM (inactive) | 20 µM (inactive) | 26.5 µM (inactive) | 33.2 µM (inactive) | 15.3 µM (inactive) | > 100 µM (inactive) | 12.2 µM (inactive) | 23.3 µM (inactive) | 25.4 | 22.7 µM (inactive) | 17.3 µM (inactive) |  |
| Cc1c[nH]c(C(=O)O)c1-c1ccc2c(-c3ccccc3)nc3ccccc3n12 | 23.2 µM (inactive) | 28.2 µM (inactive) |  | 34 µM (inactive) | 27.4 µM (inactive) | 18.2 µM (inactive) | 20.5 µM (inactive) | 19 µM (inactive) | 22.6 µM (inactive) | 16.4 µM (inactive) | 30.5 µM (inactive) |  | 36.7 µM (inactive) | 20.7 µM (inactive) | 20 µM (inactive) | 30 | 20.7 µM (inactive) | 27.1 µM (inactive) | 41 µM (inactive) |
| C=CCc1oc(C)nc1CCCC | > 100 µM (inactive) | > 100 µM (inactive) | > 100 µM (inactive) | > 100 µM (inactive) | > 100 µM (inactive) | > 100 µM (inactive) | > 100 µM (inactive) | > 100 µM (inactive) | > 100 µM (inactive) | > 100 µM (inactive) | > 100 µM (inactive) | 49.3 µM (inactive) | > 100 µM (inactive) | > 100 µM (inactive) | > 100 µM (inactive) | > 100 |  | > 100 µM (inactive) | > 100 µM (inactive) |
| O=C(N/N=C(COc1cccc(Cl)c1)\N=C\c1cccnc1)c1ccncc1 | > 100 µM (inactive) | > 100 µM (inactive) | > 100 µM (inactive) | > 100 µM (inactive) | > 100 µM (inactive) | 35.3 µM (inactive) | > 100 µM (inactive) | > 100 µM (inactive) | 89.3 µM (inactive) | > 100 µM (inactive) |  | > 100 µM (inactive) | > 100 µM (inactive) | > 100 µM (inactive) | > 100 µM (inactive) | > 100 | > 100 µM (inactive) | > 100 µM (inactive) | 84.7 µM (inactive) |
| Nc1nncc2[nH]cnc12 | > 74.3 µM (inactive) | 50.5 µM (inactive) |  | 23.4 µM (inactive) | 69 µM (inactive) | > 100 µM (inactive) | 52.1 µM (inactive) | 49.5 µM (inactive) | 22.5 µM (inactive) | > 100 µM (inactive) | 24.2 µM (inactive) | > 100 µM (inactive) | > 62.5 µM (inactive) | 47.3 µM (inactive) | 44.1 µM (inactive) | 44.4 | > 100 µM (inactive) | 25.5 µM (inactive) | > 100 µM (inactive) |
